Tests used:
[1] = Area under plasma concentration time curve in dog upon oral administration
Canis familiaris [2] = assay: Half-life in dog upon oral administration; Unable to calculate; format: ADME, organism-based, Canis lupus familiaris; settings: in vivo
Canis familiaris [3] = species: Canis familiaris; assay: Plasma clearance in dog; Unable to calculate; format: ADME, organism-based, Canis lupus familiaris; settings: in vivo
[4] = molecular target: T1, Protein farnesyltransferase (Homo sapiens, UniProt P49354+P49356); assay: Effective concentration required for inhibition of farnesylation of Ras protein in NIH3T3 cells; format: functional, cell-based, Mus musculus
in vivo [5] = settings: dog
[6] = Half-life in dog upon oral administration; settings: in vivo
[7] = molecular target: T1, Protein farnesyltransferase; assay: (§1) Inhibition of Farnesyltransferase; format: protein-complex assay
in vivo [8] = settings: dog, plasma
[9] = molecular target: T1, Protein farnesyltransferase; assay: as §1; format: protein-complex assay; remark: listed apart in the source
[10] = molecular target: Geranylgeranyl transferase type I (Homo sapiens, UniProt P49354+P53609); assay: Inhibition of Geranylgeranyl transferase type I; format: protein-complex assay

Cn1cncc1C(OCc1ccc(Cl)cc1-c1ccccc1Cl)c1ccc(C#N)cc1 (stereo not given)
AUC [1]: 9850 ng·h/mL | T1/2 (Canis familiaris [2]): Unable to calculate | Clp (Canis familiaris [3]): Unable to calculate | EC50 [4]: > 1000 nM | bioavailability (in vivo [5]): 65%

Cn1cncc1C(OCc1ccc(C#N)cc1NCc1cc(F)cc(F)c1)c1ccc(C#N)cc1 (stereo not given)
EC50 [4]: 150 nM

CCOc1cccc(-c2cc(C#N)ccc2COC(c2ccc(C#N)cc2)c2cncn2C)c1 (stereo not given)
AUC [1]: 1130 ng·h/mL | half-life [6]: 2.2 h | IC50 [7]: 0.69 nM | EC50 [4]: 0.19 nM | clearance (in vivo [8]): 16.7 mL/min/kg

Cn1cncc1C(OCc1ccc(C#N)cc1-c1cccc2cccnc12)c1ccc(C#N)cc1 (stereo not given)
EC50 [4]: 15 nM

Cn1cncc1C(OCc1ccc(C#N)cc1-c1cccc(Cl)c1)c1ccc(C#N)c(F)c1 (stereo not given)
AUC [1]: 1580 ng·h/mL | half-life [6]: 8.7 h | EC50 [4]: 36 nM | clearance (in vivo [8]): 8 mL/min/kg | bioavailability (in vivo [5]): 71%

COc1cccc(-c2cc([N+](=O)[O-])ccc2COC(c2ccc(C#N)cc2)c2cncn2C)c1 (stereo not given)
EC50 [4]: 0.81 nM

Cn1cncc1C(OCc1ccc(C#N)cc1C(=O)Nc1ccccc1)c1ccc(C#N)cc1 (stereo not given)
AUC [1]: 5720 ng·h/mL | half-life [6]: 18.4 h | EC50 [4]: 12 nM | clearance (in vivo [8]): 3.17 mL/min/kg | bioavailability (in vivo [5]): 96%

Cn1cncc1C(OCc1ccc(C#N)cc1-c1ccc2c(c1)OC(F)(F)O2)c1ccc(C#N)cc1 (stereo not given)
AUC [1]: 2760 ng·h/mL | half-life [6]: 1.3 h | EC50 [4]: 9.1 nM | clearance (in vivo [8]): 5.17 mL/min/kg

COCc1cccc(-c2cc(C#N)ccc2COC(c2ccc(C#N)cc2)c2cncn2C)c1 (stereo not given)
AUC [1]: 260 ng·h/mL | half-life [6]: 2.2 h | EC50 [4]: 1 nM | clearance (in vivo [8]): 8.5 mL/min/kg

Cn1cncc1C(OCc1ccc(Cl)cc1-c1ccc(Cl)cc1)c1ccc(C#N)cc1 (stereo not given)
EC50 [4]: 525 nM

Cn1cncc1C(OCc1ccc(C#N)cn1)c1ccc(C#N)c(-c2cccc3ccccc23)c1 (stereo not given)
IC50 [9]: 0.4 nM | EC50 [4]: 8 nM | IC50 [10]: 24 nM

COc1ccc(-c2cc(C#N)ccc2COC(c2ccc(C#N)cc2)c2cncn2C)cc1 (stereo not given)
AUC [1]: 760 ng·h/mL | half-life [6]: 3.6 h | EC50 [4]: 7 nM | clearance (in vivo [8]): 12.2 mL/min/kg

Cn1cncc1C(OCc1ccc(C#N)cc1-c1ccc2c(c1)OCO2)c1ccc(C#N)cc1 (stereo not given)
AUC [1]: 3660 ng·h/mL | half-life [6]: 2.7 h | EC50 [4]: < 1 nM | clearance (in vivo [8]): 10 mL/min/kg

Cn1cncc1C(OCc1ccc(C#N)cc1NS(=O)(=O)c1cccc2ccccc12)c1ccc(C#N)cc1 (stereo not given)
EC50 [4]: > 100 nM

CCOc1cccc(-c2cc(Cl)ccc2COC(c2ccc(C#N)cc2)c2cncn2C)c1 (stereo not given)
EC50 [4]: 4.6 nM

COc1cccc(-c2cc(Cl)ccc2COC(c2ccc(C#N)cc2)c2cncn2C)c1 (stereo not given)
EC50 [4]: 100 nM

Cc1ccc(S(=O)(=O)Nc2cc(C#N)ccc2COC(c2ccc(C#N)cc2)c2cncn2C)cc1 (stereo not given)
EC50 [4]: 13 nM

Cn1cncc1C(OCc1ccc(C#N)cc1)c1ccc(C#N)c(-c2cccc3ccccc23)c1 (stereo not given)
IC50 [9]: 0.3 nM | IC50 [10]: 18 nM

Cn1cncc1C(OCc1ccc(C#N)cc1-c1ccc(OC(F)(F)F)cc1)c1ccc(C#N)cc1 (stereo not given)
AUC [1]: 1530 ng·h/mL | half-life [6]: 6.7 h | EC50 [4]: 5.1 nM | clearance (in vivo [8]): 7.33 mL/min/kg

COc1cccc(-c2cc(N)ccc2COC(c2ccc(C#N)cc2)c2cncn2C)c1 (stereo not given)
EC50 [4]: > 100 nM

Cc1ncc(C(OCc2ccc(C#N)cc2-c2cccc(Cl)c2)c2ccc(C#N)cc2)n1C (stereo not given)
EC50 [4]: 154 nM

Cn1cncc1C(OCc1ccc(C#N)cc1-c1cccc(Cl)c1)c1ccc(C(F)(F)F)cc1 (stereo not given)
EC50 [4]: > 100 nM

Cn1cncc1C(OCc1ccc(C#N)cc1-c1cccc2ccccc12)c1ccc(C#N)cc1 (stereo not given)
EC50 [4]: 14 nM

CCOc1ccc(-c2cc(C#N)ccc2COC(c2ccc(C#N)cc2)c2cncn2C)cc1 (stereo not given)
EC50 [4]: 13 nM

N#Cc1ccc(C(OCc2ccc(C#N)cc2-c2ccc3c(c2)OCO3)c2cnccc2Cl)cc1 (stereo not given)
EC50 [4]: > 100 nM

COc1cccc(-c2cc(C#N)ccc2COC(c2ccc(C#N)c(Cl)c2)c2cncn2C)c1 (stereo not given)
EC50 [4]: 130 nM

COc1cccc(-c2cc(C#N)ccc2COC(c2ccc(Cl)cc2)c2cncn2C)c1 (stereo not given)
EC50 [4]: 17.7 nM

Cc1ccc(-c2cc(C#N)ccc2COC(c2ccc(C#N)cc2)c2cncn2C)cc1 (stereo not given)
EC50 [4]: > 100 nM

COC(=O)c1ccc(COC(c2ccc(C#N)cc2)c2cncn2C)c(-c2cccc(OC)c2)c1 (stereo not given)
EC50 [4]: > 100 nM

Cn1cncc1C(OCc1ccc(C#N)cc1-c1ccc(F)c(F)c1)c1ccc(C#N)cc1 (stereo not given)
EC50 [4]: 96 nM

Cn1cncc1C(OCc1ccc(C#N)cc1C(=O)Nc1cccc(Cl)c1)c1ccc(C#N)cc1 (stereo not given)
EC50 [4]: 3.5 nM

COc1cccc(-c2cc(NS(C)(=O)=O)ccc2COC(c2ccc(C#N)cc2)c2cncn2C)c1 (stereo not given)
EC50 [4]: > 100 nM

COc1cccc(-c2cc(C=O)ccc2COC(c2ccc(C#N)cc2)c2cncn2C)c1 (stereo not given)
EC50 [4]: > 100 nM

Cn1cncc1C(OCc1ccc(C#N)cc1-c1cccc(Cl)c1)c1ccc(C#N)cc1 (stereo not given)
AUC [1]: 9890 ng·h/mL | half-life [6]: 4.7 h | EC50 [4]: 5.2 nM | clearance (in vivo [8]): 6.67 mL/min/kg

Cn1cncc1C(OCc1ccc(C#N)cc1-c1cccc(Cl)c1)c1ccc(C#N)cc1F (stereo not given)
EC50 [4]: 3.3 nM

Cc1ncc(C(OCc2ccc(C#N)cc2-c2ccc3c(c2)OCO3)c2ccc(C#N)cc2)n1C (stereo not given)
AUC [1]: 100 ng·h/mL | half-life [6]: 0.9 h | EC50 [4]: 9.8 nM | clearance (in vivo [8]): 31.2 mL/min/kg | bioavailability (in vivo [5]): 15.2%

Cn1cncc1C(OCc1ccc(C#N)cc1NS(=O)(=O)c1cccs1)c1ccc(C#N)cc1 (stereo not given)
EC50 [4]: > 100 nM

Cn1cncc1C(OCc1ccc(Cl)cc1-c1cccc(Cl)c1)c1ccc(C#N)cc1 (stereo not given)
EC50 [4]: 390 nM

COCC(=O)Nc1ccc(COC(c2ccc(C#N)cc2)c2cncn2C)c(-c2cccc(OC)c2)c1 (stereo not given)
EC50 [4]: > 100 nM
